Data: ChEMBL document CHEMBL5316334, “Structure-Based Design of Novel Alkynyl Thio-Benzoxazepinone Receptor-Interacting Protein Kinase-1 Inhibitors: Extending the Chemical Space from the Allosteric to ATP Binding Pockets” (J Med Chem, 2023)
The source made the active and inactive calls. No cut-off for these calls is given here.

Key:
HT-29 [1] = experiment: Anti-necroptosis activity against human HT-29 cells assessed as inhibition of TSZ-induced necroptosis preincubated for 30 mins followed by compound addition and measured for 16 hrs by Cell-titer-glo assay; assay type: functional, cell-based
HT-29 [2] = experiment: Cytotoxicity against human HT-29 cells assessed as reduction in cell viability measured for 16 to 24 hrs by Cell-titer-glo assay; assay type: functional; conditions: time 16-24 hrs
HT-29 [3] = experiment: Cytotoxicity against human HT-29 cells assessed as reduction in cell viability at 100 uM measured for 16 to 24 hrs by Cell-titer-glo assay; assay type: functional, cell-based; conditions: time 16-24 hrs
[4] = molecular target: T1, Receptor-interacting serine/threonine-protein kinase 1 (Homo sapiens, UniProt Q13546); experiment: Binding affinity to recombinant RIPK1 (unknown origin) assessed as dissociation constant by kinomescan assay
T1 sequence (Q13546 whole entry): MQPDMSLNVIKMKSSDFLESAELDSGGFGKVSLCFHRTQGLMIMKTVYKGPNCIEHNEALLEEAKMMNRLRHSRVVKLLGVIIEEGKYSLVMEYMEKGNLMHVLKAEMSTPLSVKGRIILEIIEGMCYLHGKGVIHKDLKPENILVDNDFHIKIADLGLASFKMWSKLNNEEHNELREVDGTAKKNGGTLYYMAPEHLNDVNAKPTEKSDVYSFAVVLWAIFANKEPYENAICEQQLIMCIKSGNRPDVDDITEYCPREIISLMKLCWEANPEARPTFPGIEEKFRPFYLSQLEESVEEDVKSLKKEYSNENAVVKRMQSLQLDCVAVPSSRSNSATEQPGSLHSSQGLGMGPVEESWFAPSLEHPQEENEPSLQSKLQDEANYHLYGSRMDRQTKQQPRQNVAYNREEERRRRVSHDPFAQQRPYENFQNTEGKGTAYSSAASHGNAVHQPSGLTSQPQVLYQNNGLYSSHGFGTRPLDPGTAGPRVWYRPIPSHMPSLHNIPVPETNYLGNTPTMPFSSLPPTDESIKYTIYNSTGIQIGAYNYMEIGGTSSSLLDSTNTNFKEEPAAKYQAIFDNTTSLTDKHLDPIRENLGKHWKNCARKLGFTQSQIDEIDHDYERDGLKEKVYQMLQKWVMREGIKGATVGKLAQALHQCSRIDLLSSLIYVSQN

U-937 = experiment: Anti-necroptic activity against human U-937 cells assessed as inhibition of TSZ-induced necroptosis at 100 nM pretreated with compound followed by TSZ induction and measured for 12 hrs by Cell-titer-glo assay; assay type: functional, cell-based
HT-29 [5] = experiment: Anti-necroptic activity in human HT-29 cells assessed as inhibition of TNFalpha and cycloheximide-induced necroptosis pretreated with compound followed by TNFalpha and cycloheximide-induction and measured after 24 hrs by Cell-titer-glo assay; assay type: functional, cell-based
L929 = experiment: Anti-necroptic activity against mouse L929 cells assessed as inhibition of TNFalpha/z-VAD-FMK-induced necroptosis pretreated with compound followed by TNFalpha/z-VAD-FMK-induction and measured after 24 hrs by Cell-titer-glo assay; assay type: functional, cell-based; conditions: dose 0.02-10 µM
[6] = molecular target: T2, Receptor-interacting serine/threonine-protein kinase 1 (Homo sapiens) (UniProt Q13546); experiment: Inhibition of RIPK1 phosphorylation in TSZ (TNFalpha, Smac mimetic and z-VAD-FMK) induced-human HT-29 cells assessed as decrease in phosphorylated RIPK1 level at 12 nM pretreated with compound followed by TSZ-induction and measured after 6 hrs by immunoblotting analysis; assay type: cell-based
T2 sequence (whole entry): T1 sequence (Q13546 whole entry)

[7] = molecular target: Receptor-interacting serine/threonine-protein kinase 3 (Homo sapiens) (UniProt Q9Y572); experiment: Inhibition of RIPK3 phosphorylation […] (TNFalpha, Smac mimetic and z-VAD-FMK) induced-human HT-29 cells assessed as decrease in phosphorylated RIPK3 level at 12 nM pretreated with compound followed by TSZ-induction and measured after 6 hrs by immunoblotting analysis; assay type: cell-based
[8] = molecular target: T3, Mixed lineage kinase domain-like protein (Homo sapiens) (UniProt Q8NB16); experiment: Inhibition of MLKL phosphorylation […] (TNFalpha, Smac mimetic and z-VAD-FMK) induced-human HT-29 cells assessed as decrease in phosphorylated MLKL level at 12 nM pretreated with compound followed by TSZ-induction and measured after 6 hrs by immunoblotting analysis; assay type: cell-based
T3 sequence (whole entry): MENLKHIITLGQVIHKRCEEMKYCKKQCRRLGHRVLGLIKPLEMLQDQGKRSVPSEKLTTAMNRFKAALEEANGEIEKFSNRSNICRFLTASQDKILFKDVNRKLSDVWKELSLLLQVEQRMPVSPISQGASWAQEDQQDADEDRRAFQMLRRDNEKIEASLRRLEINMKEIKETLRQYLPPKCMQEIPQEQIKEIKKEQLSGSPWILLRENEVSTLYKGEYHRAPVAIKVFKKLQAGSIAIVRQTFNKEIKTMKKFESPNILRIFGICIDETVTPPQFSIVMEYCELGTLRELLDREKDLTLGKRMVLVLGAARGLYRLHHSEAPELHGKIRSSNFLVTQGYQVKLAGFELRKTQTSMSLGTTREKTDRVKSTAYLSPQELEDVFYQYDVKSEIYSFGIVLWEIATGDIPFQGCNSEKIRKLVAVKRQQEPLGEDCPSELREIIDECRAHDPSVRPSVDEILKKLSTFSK

[9] = molecular target: T2, Receptor-interacting serine/threonine-protein kinase 1 (Homo sapiens); experiment: Inhibition of RIPK1 phosphorylation in TSZ (TNFalpha, Smac mimetic and z-VAD-FMK) induced-human HT-29 cells assessed as decrease in phosphorylated RIPK1 level pretreated with compound followed by TSZ-induction and measured after 6 hrs by immunoblotting analysis; assay type: cell-based; conditions: dose 1.5-12 nM
[10] = molecular target: Receptor-interacting serine/threonine-protein kinase 3 (Homo sapiens) (UniProt Q9Y572); experiment: Inhibition of RIPK3 phosphorylation in TSZ (TNFalpha, Smac mimetic and z-VAD-FMK) induced-human HT-29 cells assessed as decrease in phosphorylated RIPK3 level pretreated with compound followed by TSZ-induction and measured after 6 hrs by immunoblotting analysis; assay type: cell-based; conditions: dose 1.5-12 nM
[11] = molecular target: T3, Mixed lineage kinase domain-like protein (Homo sapiens); experiment: Inhibition of MLKL phosphorylation in TSZ (TNFalpha, Smac mimetic and z-VAD-FMK) induced-human HT-29 cells assessed as decrease in phosphorylated MLKL level pretreated with compound followed by TSZ-induction and measured after 6 hrs by immunoblotting analysis; assay type: cell-based; conditions: dose 1.5-12 nM
[12] = molecular target: T2, Receptor-interacting serine/threonine-protein kinase 1 (Homo sapiens); experiment: Inhibition of RIPK1 phosphorylation in TSZ (TNFalpha, Smac mimetic and z-VAD-FMK) induced-human HT-29 cells assessed as decrease in phosphorylated RIPK1 level at 12 nM pretreated with compound followed by TSZ-induction by immunoblotting analysis; assay type: cell-based; conditions: time 6.0 hrs, TDE = time-dependent effect
[13] = molecular target: Receptor-interacting serine/threonine-protein kinase 3 (Homo sapiens) (UniProt Q9Y572); experiment: Inhibition of RIPK3 phosphorylation in TSZ (TNFalpha, Smac mimetic and z-VAD-FMK) induced -human HT-29 cells assessed as decrease in phosphorylated RIPK3 level at 12 nM pretreated with compound followed by TSZ-induction by immunoblotting analysis; assay type: cell-based; conditions: time 2-6 hrs, TDE = time-dependent effect
[14] = molecular target: T3, Mixed lineage kinase domain-like protein (Homo sapiens); experiment: Inhibition of MLKL phosphorylation in TSZ (TNFalpha, Smac mimetic and z-VAD-FMK) induced-human HT-29 cells assessed as decrease in phosphorylated MLKL level at 12 nM pretreated with compound followed by TSZ-induction by immunoblotting analysis; assay type: cell-based; conditions: time 2-6 hrs, TDE = time-dependent effect
HT-29 [15] = experiment: Inhibition of RIPK1-RIPK3-MLKL pathway in TSZ induced human HT-29 cells assessed as reduction in necrosome formation at 12 nM measured after 6 hrs by Western blot analysis; assay type: cell-based
Mus musculus [16] = experiment: Anti-necroptic activity against mTNFalpha induced C57BL/6 mouse systemic inflammatory response syndrome model assessed as increase in survival rate 5 mg/kg, IG pretreated with compound for 1 hr followed by mTNFalpha injection and measured after 15 mins; assay type: functional; conditions: time 75 min, 1.25 h
Mus musculus [17] = experiment: Anti-necroptic activity against mTNFalpha induced C57BL/6 mouse systemic inflammatory response syndrome model assessed as increase in survival rate 10 mg/kg, IG pretreated with compound for 1 hr followed by mTNFalpha injection and measured after 15 mins; assay type: functional; conditions: time 75 min, 1.25 h
Mus musculus [18] = experiment: Anti-necroptic activity against mTNFalpha induced C57BL/6 mouse systemic inflammatory response syndrome model assessed as increase in survival rate 15 mg/kg, IG pretreated with compound for 1 hr followed by mTNFalpha injection and measured after 15 mins; assay type: functional; conditions: time 75 min, 1.25 h
Mus musculus [19] = experiment: Anti-necroptic activity against TNFalpha-induced C57BL/6 mouse systemic inflammatory response syndrome model assessed as protection of body temperature at 20 mg/kg, IG pretreated with compound followed by TNFalpha-stimulation and measured after 2 to 3 hrs by thermometer analysis; assay type: functional, organism-based; conditions: time 2-3 hrs
Mus musculus [20] = experiment: Anti-necroptic activity against TNFalpha-induced C57BL/6 mouse serum assessed as reduction in IL-6 level at 5 mg/kg, IG pretreated with compound followed by TNFalpha-stimulation for 4 hrs; assay type: functional, organism-based
Mus musculus [21] = experiment: Anti-necroptic activity against TNFalpha-induced C57BL/6 mouse serum assessed as reduction in IL-1beta level at 5 mg/kg, IG pretreated with compound followed by TNFalpha-stimulation for 4 hrs; assay type: functional, organism-based
HT-29 [22] = experiment: Anti-necroptosis activity against human HT-29 cells assessed as inhibition of TSZ-induced necroptosis pretreated with compound followed by TSZ induction and measured for 12 hrs by Cell-titer-glo assay; assay type: functional, cell-based; conditions: dose 0.63-100 nM
Mus musculus [23] = experiment: Anti-necroptosis activity against TNFalpha-induced C57BL/6 mouse systemic inflammatory response syndrome model assessed as protection of body temperature at 5 to 20 mg/kg, IG pretreated with compound followed by TNFalpha-stimulation and measured after 2 to 3 hrs by thermometer analysis; assay type: functional, organism-based; conditions: dose 5-20 mg/kg, time 2-3 hrs
Mus musculus [24] = experiment: Anti-necroptic activity against mTNFalpha induced C57BL/6 mouse systemic inflammatory response syndrome model assessed as increase in survival rate 20 mg/kg, IG pretreated with compound for 1 hr followed by mTNFalpha injection and measured after 15 mins; assay type: functional; conditions: time 75 min, 1.25 h
Mus musculus [25] = experiment: Anti-necroptic activity against TNFalpha-induced C57BL/6 mouse serum assessed as reduction in IL-6 level at 20 mg/kg, IG pretreated with compound followed by TNFalpha-stimulation for 4 hrs; assay type: functional, organism-based
Mus musculus [26] = experiment: Anti-necroptic activity against TNFalpha-induced C57BL/6 mouse serum assessed as reduction in IL-1beta level at 20 mg/kg, IG pretreated with compound followed by TNFalpha-stimulation for 4 hrs; assay type: functional, organism-based
Mus musculus [27] = experiment: Anti-necroptic activity against mTNFalpha induced C57BL/6 mouse systemic inflammatory response syndrome model assessed as increase in survival rate 20 mg/kg, IG pretreated with compound for 1 hr followed by mTNFalpha injection and measured after 60 mins; assay type: functional; conditions: time 2 hrs
Mus musculus [28] = experiment: Anti-necroptic activity against mTNFalpha induced C57BL/6 mouse systemic inflammatory response syndrome model assessed as increase in survival rate 5 mg/kg, IG pretreated with compound for 1 hr followed by mTNFalpha injection and measured after 60 mins; assay type: functional; conditions: time 2 hrs

Receptor-interacting serine/threonine-protein kinase 3 (Homo sapiens), sequence (Q9Y572 whole entry, looked up, the tested form may be a part): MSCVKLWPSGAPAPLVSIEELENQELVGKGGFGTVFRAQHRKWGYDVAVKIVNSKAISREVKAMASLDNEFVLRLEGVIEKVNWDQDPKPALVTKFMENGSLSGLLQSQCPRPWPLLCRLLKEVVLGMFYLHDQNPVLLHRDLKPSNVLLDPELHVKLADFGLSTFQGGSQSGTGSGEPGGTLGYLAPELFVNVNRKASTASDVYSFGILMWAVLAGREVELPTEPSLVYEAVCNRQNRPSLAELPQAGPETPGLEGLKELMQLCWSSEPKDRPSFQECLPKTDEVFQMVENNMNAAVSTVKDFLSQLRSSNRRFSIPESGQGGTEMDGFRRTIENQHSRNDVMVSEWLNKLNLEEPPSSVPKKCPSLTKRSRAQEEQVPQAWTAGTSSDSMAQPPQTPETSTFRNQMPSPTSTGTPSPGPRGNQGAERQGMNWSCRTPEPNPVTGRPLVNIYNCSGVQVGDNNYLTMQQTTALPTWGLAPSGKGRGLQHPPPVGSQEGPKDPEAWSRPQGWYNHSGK

SMILES | EC50 (HT-29 [1]) | CC50 (HT-29 [2]) | Kd [4] | Activity (U-937) | Activity (HT-29 [5]) | Activity (L929) | inhibition [6] | inhibition [7] | inhibition [8] | inhibition [9] | inhibition [10] | inhibition [11] | inhibition [12] | inhibition [13] | inhibition [14] | inhibition (HT-29 [15]) | Activity (Mus musculus [16]) | Activity (Mus musculus [17]) | Activity (Mus musculus [19]) | Activity (Mus musculus [23]) | also measured
CN1C(=S)[C@@H](NC(=O)c2n[nH]c(Cc3ccccc3)n2)COc2ccc(C#Cc3cccc(C#N)c3)cc21 | 3.2 nM | > 100000 nM | 70 nM | Active | inactive | Dose-Dependent Effect | Active | Active | Active | Dose-Dependent Effect | Dose-Dependent Effect | Dose-Dependent Effect | Tde | Tde | Tde | Active | 58% | 83% | Active |  | Activity (HT-29 [3]): inactive; Activity (Mus musculus [18]): 100%; Activity (Mus musculus [20]): Active; Activity (Mus musculus [21]): Active
C#Cc1ccc2c(c1)N(C)C(=S)[C@@H](NC(=O)c1n[nH]c(Cc3ccccc3)n1)CO2 | 3.7 nM | > 100000 nM | 9.7 nM | Active | inactive | Dose-Dependent Effect | Active | Active | Active | Dose-Dependent Effect | Dose-Dependent Effect | Dose-Dependent Effect | Tde | Tde | Tde | Active | 66% | 83% | Active | Active | Activity (HT-29 [22]): Dose-Dependent Effect; Activity (Mus musculus [24]): 100%; Activity (Mus musculus [25]): Active; Activity (Mus musculus [26]): Active
CN1C(=O)[C@@H](NC(=O)c2n[nH]c(Cc3ccccc3)n2)COc2ccccc21 [GSK2982772] |  | > 100000 nM |  |  |  |  |  |  |  |  |  |  |  |  |  |  |  |  |  | Active | Activity (Mus musculus [27]): 92%; Activity (Mus musculus [28]): 50%
